Experimental data published in patent publication US6239130A, “Phosphodiesterase 4-inhibiting diazepinoindolones” (Warner-Lambert Company, priority 1997, dated 2001).

System: PDE4 enzyme of human origin
Assay: PDE4-inhibiting activity on an enzyme preparation obtained from the U937 cell line
Type: biochemical
Description: In the case of the PDE4 enzymes, this value is compared with that of rolipram, a specific PDE4 inhibitor. […] Measurement of the enzyme activity of the different types of PDE, and especially of the PDE4 enzymes, is then carried out according to a method adapted from W. J. Thompson, ibidem.

Row | SMILES | IC50
1 | Cc1cc2c3c(c1)C(c1ccccc1)=NC(n1c(C)nc4cc(C(=O)OCCN5CCOCC5)ccc4c1=O)C(=O)N3CC2 (centres unmarked) [Example 10, 2-(4-morpholinyl)ethyl 2-methyl-3-(9-methyl-4-oxo-1-phenyl-3,4,6,7-tetrahydro-[1,4]diazepino-[6,7,1-hi]indol-3-yl)-4-oxo-3,4-dihydroquinazoline-7-carboxylate] | 183 nM
2 | CC(=O)OCCOC(=O)c1ccc2c(=O)n(C3N=C(c4ccccc4)c4cc(C)cc5c4N(CC5)C3=O)c(C)nc2c1 (centres unmarked) [Example 10A, 2-acetoxyethyl 2-methyl-3-(9-methyl-4-oxo-1-phenyl-3,4,6,7-tetrahydro[1,4]diazepino[6,7,1-hi]indol-3-yl)-4-oxo-3,4dihydroquinazoline-7-carboxylate] | 108 nM
3 | COCCOC(=O)c1ccc2c(=O)n(C3N=C(c4ccccc4)c4cc(C)cc5c4N(CC5)C3=O)c(C)nc2c1 (centres unmarked) [Example 10B, 2-Methoxyethyl 2-methyl-3-(9-methyl-4-oxo-1-phenyl-3,4,6,7-tetrahydro[1,4]diazepino[6,7,1-hi]indol-3-yl)-4-oxo-3,4-dihydroquinazoline-7-carboxylate] | 155 nM
4 | Cc1cc2c3c(c1)C(c1ccccc1)=NC(n1c(C)nc4cc(C(=O)OCCO)ccc4c1=O)C(=O)N3CC2 (centres unmarked) [Example 10C, 2-Hydroxyethyl 2-methyl-3-(9-methyl-4-oxo-1-phenyl-3,4,6,7-tetrahydro[1,4]diazepino[6,7,1-hi]indol-3-yl)-4-oxo-3,4-dihydroquinazoline-7-carboxylate] | 81 nM
5 | Cc1cc2c3c(c1)C(c1ccccc1)=NC(n1c(C)nc4cc(C(=O)OC[C@@H](O)CO)ccc4c1=O)C(=O)N3CC2 (stereo partly drawn) [Example 10D, 1-(2S)-glyceryl 2-methyl-3-(9-methyl-4-oxo-1-phenyl-3,4,6,7-tetrahydro[1,4]diazepino[6,7,1-hi]indol-3-yl)-4-oxo-3,4-dihydroquinazoline-7-carboxylate] | 42 nM
6 | Cc1cc2c3c(c1)C(c1ccccc1)=NC(n1c(C)nc4cc(C(=O)OCC(O)CN5CCOCC5)ccc4c1=O)C(=O)N3CC2 (centres unmarked) [Example 10E, 2-hydroxy-3-morpholin-4-ylpropyl 2-methyl-3-(9-methyl-4-oxo-1-phenyl-3,4,6,7-tetrahydro[1,4]diazepino[6,7,1-hi]indol-3-yl)-4-oxo-3,4-dihydroquinazoline-7-carboxylate] | 75 nM
7 | Cc1cc2c3c(c1)C(c1ccccc1)=NC(n1c(C)nc4cc(CO)ccc4c1=O)C(=O)N3CC2 (centres unmarked) [Example 11, 3-(7-hydroxymethyl-2-methyl-4-oxo-4H-quinazolin-3-yl)-9-methyl-1-phenyl-6,7-dihydro-3H-[1,4]diazepino[6,7,1-hi]indol-4-one] | 79 nM
8 | Cc1cc2c3c(c1)C(c1ccccc1)=N[C@@H](n1c(C)nc4cccc(F)c4c1=O)C(=O)N3CC2 [Example 12] | 88 nM
9 | Cc1cc2c3c(c1)C(c1ccccc1)=NC(n1c(C)nc4cccc(Cl)c4c1=O)C(=O)N3CC2 (centres unmarked) [Example 13, 3-(5-chloro-2-methyl-4-oxo-4H-quinazolin-3-yl)-9-methyl-1-phenyl-6,7-dihydro-3H-[1,4]diazepino-[6,7,1-hi]indol-4-one] | 83 nM
10 | CCOC(=O)c1nc2ccccc2c(=O)n1C1N=C(c2ccccc2)c2cc(C)cc3c2N(CC3)C1=O (centres unmarked) [Example 14, ethyl 3-(9-methyl-4-oxo-1-phenyl-3,4,6,7-tetrahydro-[1,4]diazepino[6,7,1-hi]indol-3-yl)-4-oxo-3,4-dihydroquinazoline-2-carboxylate] | 310 nM
11 | CCOC(=O)c1nc2cccc(Cl)c2c(=O)n1C1N=C(c2ccccc2)c2cc(C)cc3c2N(CC3)C1=O (centres unmarked) [Example 15, Ethyl 5-chloro-3-(9-methyl-4-oxo-1-phenyl-3,4,6,7-tetrahydro-[1,4]diazepino[6,7,1-hi]indol-3-yl)-4oxo-3,4-dihydroquinazoline-2-carboxylate] | 82 nM
12 | CCOC(=O)Cc1nc2ccccc2c(=O)n1C1N=C(c2ccccc2)c2cc(C)cc3c2N(CC3)C1=O (centres unmarked) [Example 16, Ethyl [3-(9-methyl-4-oxo-1-phenyl-3,4,6,7-tetrahydro-[1,4]diazepino[6,7,1-hi]indol-3-yl)-4-oxo-3,4-dihydro-2-quinazolinyl]acetate] | 260 nM
13 | COCc1nc2ccccc2c(=O)n1C1N=C(c2ccccc2)c2cc(C)cc3c2N(CC3)C1=O (centres unmarked) [Example 17A, 9-Methyl-3-(2-methyloxymethyl-4-oxo-4H-quinazolin-3-yl)-1-phenyl-6,7-dihydro-3H-[1,4]diazepino[6,7,1-hi]indol-4-one] | 137 nM
14 | Cc1cc2c3c(c1)C(c1ccccc1)=NC(n1c(CO)nc4ccccc4c1=O)C(=O)N3CC2 (centres unmarked) [Example 17B, 9-Methyl-3-(2-hydroxymethyl-4-oxo-4H-quinazolin-3-yl)-1-phenyl-6,7-dihydro-3H-[1,4]diazepino[6,7,1-hi]indol-4-one] | 221 nM
15 | Cc1cc2c3c(c1)C(c1ccccc1)=NC(n1c(COC(=O)CCC(=O)O)nc4ccccc4c1=O)C(=O)N3CC2 (centres unmarked) [Example 17C, [3-(9-Methyl-4-oxo-1-phenyl-3,4,6,7-tetrahydro-[1,4]diazepino[6,7,1-hi]indol-3-yl)-4-oxo-3,4-dihydroquinazolin-2-yl]methyl hydrogen succinate] | 339 nM
16 | COCCOCCOCC(=O)OCc1nc2ccccc2c(=O)n1C1N=C(c2ccccc2)c2cc(C)cc3c2N(CC3)C1=O (centres unmarked) [Example 17D, [3-(9-Methyl-4-oxo-1-phenyl-3,4,6,7-tetrahydro-[1,4]diazepino[6,7,1-hi]iondol-3-yl)-4-oxo-3,4-dihydroquinazolin-2-yl]methanol [2-(2-methoxyethoxy)ethoxy]acetate] | 286 nM
17 | Cc1cc2c3c(c1)C(c1ccccc1)=NC(n1c(COC(=O)CCC(=O)NCCN4CCOCC4)nc4ccccc4c1=O)C(=O)N3CC2 (centres unmarked) [Example 17E, 3-(9-Methyl-4-oxo-1-phenyl-3,4,6,7-tetrahydro-[1,4]diazepino [6,7,1-hi]indol-3-yl)-4-oxo-3,4-dihydroquinazolin-2-ylmethyl N-(2-morpholin-4-ylethyl)succinamate] | 222 nM
18 | Cc1cc2c3c(c1)C(c1ccccc1)=NC(n1c(COC(=O)CCC(=O)OCCN4CCOCC4)nc4ccccc4c1=O)C(=O)N3CC2 (centres unmarked) [Example 17F, 3-(9-Methyl-4-oxo-1-phenyl-3,4,6,7-tetrahydro-[1,4]diazepino[6,7,1-hi]indol-3-yl)-4-oxo-3,4-dihydroquinazolin-2-ylmethyl 2-morpholin-4-ylethyl succinnate] | 147 nM
19 | COC(=O)[C@H](CCCCNC(=O)OC(C)(C)C)NC(=O)CCC(=O)OCc1nc2ccccc2c(=O)n1C1N=C(c2ccccc2)c2cc(C)cc3c2N(CC3)C1=O (some centres unmarked) [Example 17G, Methyl 6-t-butoxycarbonylamino-2-{3-[3-(9-methyl-4-oxo-1-phenyl-3,4,6,7-tetrahydro-[1,4]diazepino[6,7,1-hi]indol-3-yl)-4-oxo-3,4-dihydroquinazolin-2-ylmethoxycarbonyl]propionylamino}hexanoate] | 516 nM
20 | CCOC(=O)CCc1nc2ccccc2c(=O)n1C1N=C(c2ccccc2)c2cc(C)cc3c2N(CC3)C1=O (centres unmarked) [Example 17H, Ethyl 3-[3-(9-methyl 4oxo-1-phenyl-3,4,6,7-tetrahydro[1,4]diazepino[6,7,1-hi]indol-3-yl)-4-oxo-3,4-dihydroquinazolin-2-yl]propanoate] | 184 nM
